Experimental data as given in US9346821B2, “Heterocyclic carboxylic acid ester derivative” (AJINOMOTO CO., INC., priority 2011, dated 2016).
Where a name gives a salt, the structure may show the parent alone.

Key:
[1] = target: human trypsin (Homo sapiens, UniProt P07477); test: Measurement of trypsin inhibitory activity; format: biochemical; details: for Ki: human trypsin, Boc-Phe-Ser-Arg-AMC substrate, Dixon plot
Method: Measurement of Trypsin Inhibitory Activity
Using a 96 well plate (#3915, Costar), a test compound (25 μL) was mixed with 20 μM fluorescence enzyme substrate (Boc-Phe-Ser-Arg-AMC, 50 μL) mixed with 200 mM Tris-HCl buffer (pH 8.0), and human trypsin (Sigma, 25 μL) was added. Using a fluorescence plate reader fmax (Molecular Devices, Inc.), the reaction rate was measured from the time-course changes at excitation wavelength 355 nm and fluorescence wavelength 460 nm. The Ki value was calculated from the concentration of the test compound, reciprocal of reaction rate, and Km value of the enzyme substrate, and by using Dixon plot.

[2] = target: recombinant human enteropeptidase (Homo sapiens (Human), UniProt P98073); test: Measurement of enteropeptidase inhibitory activity; format: biochemical; details: for Ki: recombinant human enteropeptidase, Gly-Asp-Asp-Asp-Asp-Lys-β-Naphtylamide substrate, Dixon plot
Chain of recombinant human enteropeptidase (P98073 whole entry): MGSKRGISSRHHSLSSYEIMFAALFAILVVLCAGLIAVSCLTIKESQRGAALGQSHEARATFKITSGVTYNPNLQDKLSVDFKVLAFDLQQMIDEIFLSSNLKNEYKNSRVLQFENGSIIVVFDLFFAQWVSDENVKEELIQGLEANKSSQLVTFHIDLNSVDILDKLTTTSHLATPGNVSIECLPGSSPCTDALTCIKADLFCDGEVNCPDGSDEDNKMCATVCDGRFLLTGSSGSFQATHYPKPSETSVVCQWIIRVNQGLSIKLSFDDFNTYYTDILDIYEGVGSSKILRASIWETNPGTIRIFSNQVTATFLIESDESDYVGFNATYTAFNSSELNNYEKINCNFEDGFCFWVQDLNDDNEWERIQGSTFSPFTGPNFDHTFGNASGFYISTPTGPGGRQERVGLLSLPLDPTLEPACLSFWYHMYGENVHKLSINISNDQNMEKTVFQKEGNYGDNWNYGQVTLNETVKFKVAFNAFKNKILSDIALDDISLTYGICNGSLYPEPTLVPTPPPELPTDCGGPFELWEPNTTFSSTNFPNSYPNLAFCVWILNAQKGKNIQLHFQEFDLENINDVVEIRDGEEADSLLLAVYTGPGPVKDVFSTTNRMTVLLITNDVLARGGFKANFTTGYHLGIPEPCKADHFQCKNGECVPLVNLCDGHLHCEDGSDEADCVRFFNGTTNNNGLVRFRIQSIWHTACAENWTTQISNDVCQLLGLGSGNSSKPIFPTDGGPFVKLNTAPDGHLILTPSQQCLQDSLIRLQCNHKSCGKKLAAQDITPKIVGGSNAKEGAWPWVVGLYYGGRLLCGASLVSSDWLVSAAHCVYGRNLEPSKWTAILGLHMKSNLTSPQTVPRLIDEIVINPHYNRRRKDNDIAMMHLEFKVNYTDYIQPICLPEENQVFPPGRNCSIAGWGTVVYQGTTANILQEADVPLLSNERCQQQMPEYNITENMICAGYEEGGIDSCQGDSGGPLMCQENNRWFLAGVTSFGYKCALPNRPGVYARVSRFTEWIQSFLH
Method: Measurement of Enteropeptidase Inhibitory Activity
Using a 96 well plate (#3915, Costar), a test compound (25 μL), 400 mM Tris-HCl buffer (pH 8.0, 25 μL) and 0.5 mg/mL fluorescence enzyme substrate (Gly-Asp-Asp-Asp-Asp-Lys-β-Naphtylamide, 25 μL) were mixed, and recombinant human enteropeptidase (R&D Systems, Inc., 25 μL) was added. Using a fluorescence plate reader fmax (Molecular Devices, Inc.), the reaction rate was measured from the time-course changes at excitation wavelength 320 nm and fluorescence wavelength 405 nm. The Ki value was calculated from the concentration of the test compound, reciprocal of reaction rate, and Km value of the enzyme substrate, and by using Dixon plot.

[3] = system: KK-A^y/JCL mice; test: Evaluation of antidiabetic action (Experimental Example 4); format: in vivo; details: mixed in feed for one week, versus control group
Source text: Evaluation of Antidiabetic Action KK-A^y/JCL mice (male, 5- to 7-week-old, CLEA Japan, Inc.) known to spontaneously develop obese type 2 diabetes were purchased and, after one week of preliminary rearing period, grouped (6 per group) with the body weight and non-fasting blood glucose levels as indices. The animals were individually housed in a polycarbonate cage and allowed to drink water freely from a watering bottle. […] CRF-1 alone was given to the control group. After one week of dosing period, the blood (6 μL) was drawn from the tail vein of the animals, and the blood glucose level was measured by ACCU-CHEK Aviva (Roche Diagnostics K.K.). A significant difference from the control group was detected by Dunnett's multiple comparison test or Student's t-test (significance level less than 5%).

Compound | Ki [1] [nM] | Ki [2] [nM] | hypoglycemic action [3] | trypsin inhibitory activity (in words) ([1]; summary statement) | enteropeptidase inhibitory activity (in words) ([2]; summary statement)
N=C(N)c1ccc(OC(=O)c2ccc(CN3CCC[C@H]3C(=O)N[C@@H](CS(=O)(=O)O)C(=O)O)o2)cc1 [A-10] | 0.97 | 0.65 | – | – | –
CC(C)C[C@@H](C(=O)N[C@@H](CCC(=O)O)C(=O)O)N(C)Cc1ccc(C(=O)Oc2ccc(C(=N)N)cc2F)s1 [B-32] | 0.7 | 0.9 | – | – | –
N=C(N)c1ccc(OC(=O)c2cc3c(s2)CN(CC(=O)O)CC3)c(F)c1 [B-43, {2-[(4-amidino-2-fluorophenoxy)carbonyl]-4,5-dihydrothieno[2,3-c]pyridin-6(7H)-yl}acetic acid bis(trifluoroacetate)] | 0.56 | 0.69 | – | – | –
N=C(N)c1ccc(OC(=O)c2ccc(CCC(=O)N[C@@H](CC(=O)O)C(=O)O)s2)c(F)c1.O=C(O)C(F)(F)F [reference compound A, N-{3-[5-(4-amidino-2-fluorophenoxycarbonyl)thiophen-2-yl]propanoyl}-L-aspartic acid trifluoroacetate, reference compound] | – | 1.36 | significant hypoglycemic action | superior | superior
C=CCN(CC(=O)O)C(=O)[C@@H]1CSCN1Cc1ccc(C(=O)Oc2ccc(C(=N)N)cc2F)s1 [B-21] | 0.38 | 1 | – | – | –
CC(C)[C@@H](C(=O)N[C@@H](CCC(=O)O)C(=O)O)N(C)Cc1ccc(C(=O)Oc2ccc(C(=N)N)cc2F)s1 [B-26] | 0.38 | 1 | – | – | –
C=CCN(CC(=O)O)C(=O)[C@@H]1CCCN1Cc1ccc(C(=O)Oc2ccc(C(=N)N)cc2F)s1 [B-11] | 0.64 | 0.78 | – | – | –
CC(C)C[C@@H](C(=O)N[C@H](CCC(=O)O)C(=O)O)N(C)Cc1ccc(C(=O)Oc2ccc(C(=N)N)cc2F)s1 [B-36] | 0.89 | 0.61 | – | – | –
CN(Cc1ccc(C(=O)Oc2ccc(C(=N)N)cc2)o1)C(=O)N[C@@H](CC(=O)O)C(=O)O [A-20] | 0.54 | 0.94 | – | – | –
N=C(N)c1ccc(OC(=O)c2ccc(CN3CCC[C@H]3C(=O)N[C@@H](CS(=O)(=O)O)C(=O)O)s2)c(F)c1 [B-10] | 0.25 | 0.24 | – | – | –
N=C(N)c1ccc(OC(=O)c2ccc(CN3CCC[C@@H]3C(=O)N[C@@H](CS(=O)(=O)O)C(=O)O)o2)cc1 [A-5] | 0.24 | 0.82 | – | – | –
N=C(N)c1ccc(OC(=O)c2ccc(CN3CSC[C@H]3C(=O)N[C@@H](CC(=O)O)C(=O)O)s2)c(F)c1 [B-20] | 0.21 | 0.15 | – | – | –
N=C(N)c1ccc(OC(=O)c2ccc(CN3CCC[C@@H]3C(=O)N[C@@H](CS(=O)(=O)O)C(=O)O)s2)c(F)c1 [B-14] | 0.19 | 0.24 | – | – | –
CC(C)C[C@@H](C(=O)N[C@@H](CC(=O)O)C(=O)O)N(C)Cc1ccc(C(=O)Oc2ccc(C(=N)N)cc2F)s1 [B-35] | 0.81 | 0.53 | – | – | –
CC(C)[C@H](C(=O)N[C@@H](CC(=O)O)C(=O)O)N(C)Cc1ccc(C(=O)Oc2ccc(C(=N)N)cc2F)s1 [B-27, N—(N-{[5-(4-amidino-2-fluorophenoxycarbonyl)thiophen-2-yl]methyl}-N-methyl-D-valyl)-L-aspartic acid bis(trifluoroacetate)] | 0.68 | 0.78 | – | – | –
CN(Cc1ccc(C(=O)Oc2ccc(C(=N)N)cc2F)s1)[C@H](Cc1ccccc1)C(=O)N[C@H](CC(=O)O)C(=O)O [B-59, N—(N-{5-[(4-amidino-2-fluorophenoxy)carbonyl]thiophen-2-yl}methyl-N-methyl-D-phenylalanyl)-D-aspartic acid bis(trifluoroacetate)] | 3.31 | 0.98 | – | – | –

Compound | Ki [1] [nM] | Ki [2] [nM] | hypoglycemic action [3] | trypsin inhibitory activity (in words) ([1]; summary statement) | enteropeptidase inhibitory activity (in words) ([2]; summary statement)
N=C(N)c1ccc(OC(=O)c2ccc(Cn3cccc3C(=O)O)s2)c(F)c1 [B-42, N-{[5-(4-amidino-2-fluorophenoxycarbonyl)thiophen-2-yl]methyl}-1H-pyrrole-2-carboxylic acid trifluoroacetate] | 0.82 | 0.61 | – | – | –
CC(C)[C@@H](C(=O)N[C@@H](CC(=O)O)C(=O)O)N(C)Cc1ccc(C(=O)Oc2ccc(C(=N)N)cc2F)s1 [B-23] | 0.44 | 0.75 | – | – | –
N=C(N)c1ccc(OC(=O)c2ccc(CN3CCC[C@@H]3C(=O)N[C@@H](CS(=O)(=O)O)C(=O)O)s2)cc1 [B-12] | 1.14 | 0.95 | – | – | –
N=C(N)c1ccc(OC(=O)c2ccc(CNC3(C(=O)N[C@@H](CC(=O)O)C(=O)O)CC3)s2)c(F)c1 [B-37, N-(1-{[5-(4-amidino-2-fluorophenoxycarbonyl)thiophen-2-yl]methylamino}cyclopropanecarbonyl)-L-aspartic acid bis(trifluoroacetate)] | 1.57 | 1.27 | – | – | –
CC(C)[C@@H](C(=O)N[C@@H](CC(=O)O)C(=O)O)N(C)Cc1ccc(C(=O)Oc2ccc(C(=N)N)cc2)o1 [A-14, N—(N-{[5-(4-amidinophenoxycarbonyl)furan-2-yl]methyl}-N-methyl-L-valyl)-L-aspartic acid bis(trifluoroacetate)] | 0.45 | 0.56 | – | – | –
CN(Cc1ccc(C(=O)Oc2ccc(C(=N)N)cc2F)s1)C(=O)N[C@@H](CC(=O)O)C(=O)O [B-46] | 0.87 | 0.38 | – | – | –
N=C(N)c1ccc(OC(=O)c2ccc(CN3CCC[C@@H]3C(=O)N[C@H](CC(=O)O)C(=O)O)s2)c(F)c1 [B-15] | 0.52 | 0.69 | – | – | –
N=C(N)c1ccc(OC(=O)c2cc3c(s2)CN(C(=O)N[C@@H](CC(=O)O)C(=O)O)CC3)c(F)c1 [B-55, N-{[2-(4-amidino-2-fluorophenoxycarbonyl)-4,5,6,7-tetrahydrothieno[2,3-c]pyridin-6-yl]carbonyl}-L-aspartic acid trifluoroacetate] | 0.24 | 0.2 | – | – | –
C=CCN(C(=O)CN1CCc2cc(C(=O)Oc3ccc(C(=N)N)cc3F)sc2C1)[C@@H](CCC(=O)O)C(=O)O [B-45, N-allyl-N-({2-[(4-amidino-2-fluorophenoxy)carbonyl]-4,5-dihydrothieno[2,3-c]pyridin-6(7H)-yl}acetyl)-L-glutamic acid bis(trifluoroacetate)] | 0.71 | 0.62 | – | – | –
CC(C)N(Cc1ccc(C(=O)Oc2ccc(C(=N)N)cc2)o1)C(=O)N[C@@H](CC(=O)O)C(=O)O [A-21] | 0.84 | 0.38 | – | – | –
C=CCN(CC(=O)N[C@@H](CC(=O)O)C(=O)O)C(=O)CCc1ccc(C(=O)Oc2ccc(C(=N)N)cc2F)s1 [B-56, N—[N-allyl-N-(3-{5-[(4-amidino-2-fluorophenoxy)carbonyl]thiophen-2-yl}propanoyl)glycyl]-L-aspartic acid trifluoroacetate] | 0.43 | 0.77 | – | – | –
N=C(N)c1ccc(OC(=O)c2ccc(CN3CCC[C@@H]3C(=O)N(CCC(=O)O)CC(=O)O)s2)c(F)c1 [B-60, N-{5-[(4-amidino-2-fluorophenoxy)carbonyl]thiophen-2-yl}methyl-D-proline N-(2-carboxyethyl)-N-carboxymethylamide bis(trifluoroacetate)] | 0.42 | 0.53 | – | – | –
N=C(N)c1ccc(OC(=O)c2ccc(CN3CCC[C@@H]3C(=O)N[C@@H](CC(=O)O)C(=O)O)s2)c(F)c1 [B-13] | 0.29 | 0.43 | – | – | –
N=C(N)c1ccc(OC(=O)c2ccc(CN3CCCC[C@H]3C(=O)N[C@@H](CC(=O)O)C(=O)O)s2)c(F)c1 [B-18] | 0.92 | 0.44 | – | – | –
N=C(N)c1ccc2cc(OC(=O)c3ccc(CN4CCC[C@@H]4C(=O)N[C@@H](CS(=O)(=O)O)C(=O)O)o3)ccc2c1 [A-6] | 0.08 | 0.67 | – | – | –
CC(C)N(Cc1ccc(C(=O)Oc2ccc(C(=N)N)cc2F)s1)C(=O)N[C@@H](CC(=O)O)C(=O)O [B-47] | 0.69 | 0.33 | – | – | –
